We go through 27 compounds from patent publication US10758534B2 (Vertex Pharmaceuticals Incorporated, priority 2014, dated 2020).

T1 sequence (P13569 with tags, fused parts or gaps DEL508-508): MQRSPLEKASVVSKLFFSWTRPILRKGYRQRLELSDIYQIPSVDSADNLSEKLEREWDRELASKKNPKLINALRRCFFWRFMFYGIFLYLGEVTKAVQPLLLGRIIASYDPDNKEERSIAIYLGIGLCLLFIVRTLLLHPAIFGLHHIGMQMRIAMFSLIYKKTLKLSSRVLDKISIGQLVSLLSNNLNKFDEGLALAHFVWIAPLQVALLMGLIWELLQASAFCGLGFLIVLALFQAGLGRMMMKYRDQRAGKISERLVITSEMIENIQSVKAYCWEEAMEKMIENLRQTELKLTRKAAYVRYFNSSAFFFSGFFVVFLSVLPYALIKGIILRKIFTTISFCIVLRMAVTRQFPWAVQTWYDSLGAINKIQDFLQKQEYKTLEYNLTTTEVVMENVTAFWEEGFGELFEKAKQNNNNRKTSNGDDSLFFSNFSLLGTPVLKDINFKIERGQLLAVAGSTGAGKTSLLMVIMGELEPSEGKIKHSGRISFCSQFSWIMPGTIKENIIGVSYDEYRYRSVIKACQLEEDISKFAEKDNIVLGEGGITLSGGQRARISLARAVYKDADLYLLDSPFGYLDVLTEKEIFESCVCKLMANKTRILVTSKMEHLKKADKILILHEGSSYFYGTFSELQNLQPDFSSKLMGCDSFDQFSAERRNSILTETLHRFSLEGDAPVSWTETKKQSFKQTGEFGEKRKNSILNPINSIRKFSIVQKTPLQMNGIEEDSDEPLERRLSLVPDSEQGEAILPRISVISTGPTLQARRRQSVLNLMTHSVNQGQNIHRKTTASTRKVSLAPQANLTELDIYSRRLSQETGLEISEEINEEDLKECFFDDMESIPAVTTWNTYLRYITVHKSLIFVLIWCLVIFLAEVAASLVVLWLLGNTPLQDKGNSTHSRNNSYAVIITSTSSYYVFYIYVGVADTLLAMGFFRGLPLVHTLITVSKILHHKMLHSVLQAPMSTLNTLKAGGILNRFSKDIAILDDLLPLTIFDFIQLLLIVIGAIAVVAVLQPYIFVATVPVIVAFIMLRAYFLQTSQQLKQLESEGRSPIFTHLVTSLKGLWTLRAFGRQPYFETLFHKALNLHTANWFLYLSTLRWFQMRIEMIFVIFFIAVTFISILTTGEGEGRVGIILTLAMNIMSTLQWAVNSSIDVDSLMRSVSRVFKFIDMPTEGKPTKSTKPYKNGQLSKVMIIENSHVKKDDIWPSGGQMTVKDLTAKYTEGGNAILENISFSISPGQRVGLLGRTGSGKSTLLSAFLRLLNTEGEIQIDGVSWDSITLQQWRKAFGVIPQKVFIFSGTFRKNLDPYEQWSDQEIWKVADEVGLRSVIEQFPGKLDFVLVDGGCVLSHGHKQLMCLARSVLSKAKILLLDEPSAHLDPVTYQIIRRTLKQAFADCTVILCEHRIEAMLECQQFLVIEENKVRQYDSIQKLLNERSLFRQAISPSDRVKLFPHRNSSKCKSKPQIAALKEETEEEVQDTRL

The test concerns the target T1, F508del (Homo sapiens, UniProt P13569, DEL508-508).
T1 construct: expressed in transfected cells
The experiment in a line: Protocol 1: membrane potential optical assay (FLIPR III, voltage sensing dye), identification of potentiator compounds. Type of test: cell-based. Conditions: Table 3, compounds of Table 1. Put shortly: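 Gating potentiation is read as a membrane-potential fluorescence change (FLIPR III, voltage-sensing dye) after one forskolin addition under a Cl− gradient, with gluconate replacing chloride, pH 7.4. Cells are F508del-expressing NIH3T3 mouse fibroblasts held 24 h at 27 °C and exposed to compound before dye loading.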
As for `COc1cccc(-c2ccc(C(=O)NS(=O)(=O)c3ccn[nH]3)c(N3[C@H](C)CC[C@@H]3C)n2)n1` [Compound 1236, 2-[(2S,5R)-2,5-dimethylpyrrolidin-1-yl]-6-(6-methoxy-2-pyridyl)-N-(1H-pyrazol-5-ylsulfonyl)pyridine-3-carboxamide], the EC30 result is “++ (“++” means between 3 uM and 10 uM)”.

With `C[C@@H]1CN(c2nc(-c3ccccc3F)ccc2C(=O)NS(=O)(=O)c2cccnc2N)C(C)(C)C1` [Compound 1790, N-[(2-amino-3-pyridyl)sulfonyl]-6-(2-fluorophenyl)-2-[(4S)-2,2,4-trimethylpyrrolidin-1-yl]pyridine-3-carboxamide], the EC30 entry is listed as “+++ (“+++” means <3 uM)”. As to `CCOc1cccc2c1CN(Cc1cc(F)cc(OC)c1)C2(C)C(=O)NS(=O)(=O)c1cccc(N)n1` (stereo not drawn) [Compound 1421, N-[(6-amino-2-pyridyl)sulfonyl]-4-ethoxy-2-[(3-fluoro-5-methoxy-phenyl)methyl]-1-methyl-isoindoline-1-carboxamide], the EC30 entry was “+++ (“+++” means <3 uM)”. With `CC(C)COc1cc(-c2ccc(C(=O)NS(=O)(=O)c3cccc(N)n3)c(N3[C@H](C)CC[C@@H]3C)n2)ccc1Cl` [Compound 1197, N-[(6-amino-2-pyridyl)sulfonyl]-6-(4-chloro-3-isobutoxy-phenyl)-2-[(2S,5R)-2,5-dimethylpyrrolidin-1-yl]pyridine-3-carboxamide], the EC30 result was “+++ (“+++” means <3 uM)”.

Turning to `CC(C)CCOc1cccc(-c2cnc(N3CC(C)CC3(C)C)c(C(=O)NS(=O)(=O)c3cccc(N)n3)c2)c1` (stereo not drawn) [Compound 1894, N-[(6-amino-2-pyridyl)sulfonyl]-5-(3-isopentyloxyphenyl)-2-(2,2,4-trimethylpyrrolidin-1-yl)pyridine-3-carboxamide], the EC30 result is given as “+++ (“+++” means <3 uM)”. Turning to `Cc1cc(C)c(CN2C(C(=O)NS(=O)(=O)c3cc(N)ccc3C)c3ccccc3C2(C)C)c(C)c1` (stereo not drawn) [Compound 840, N-(5-amino-2-methyl-phenyl)sulfonyl-3,3-dimethyl-2-[(2,4,6-trimethylphenyl)methyl]isoindoline-1-carboxamide], the EC30 result is “+++ (“+++” means <3 uM)”.

For the compound `CC(C)Oc1ccc(-c2ccc(C(=O)NS(=O)(=O)c3cccc(N)n3)c(N3CCCC(C4CC4)C3)n2)cn1` (stereo not drawn) [Compound 1132, N-[(6-amino-2-pyridyl)sulfonyl]-2-(3-cyclopropyl-1-piperidyl)-6-(6-isopropoxy-3-pyridyl)pyridine-3-carboxamide], the EC30 result was “+++ (“+++” means <3 uM)”. The value for `CCOc1cccc2c1CN(Cc1c(C)cc(C)cc1C)C2(C)C(=O)NS(=O)(=O)c1cccc(N)c1` (stereo not drawn) [Compound 1454, N-(3-aminophenyl)sulfonyl-4-ethoxy-1-methyl-2-[(2,4,6-trimethylphenyl)methyl]isoindoline-1-carboxamide] was “+++ (“+++” means <3 uM)”; that for `C[C@@H]1CN(c2nc(/C=C/C3CC3)ccc2C(=O)NS(=O)(=O)c2cccc(N)n2)C(C)(C)C1` [Compound 1379, N-[(6-amino-2-pyridyl)sulfonyl]-6-[(E)-2-cyclopropylvinyl]-2-[(4S)-2,2,4-trimethylpyrrolidin-1-yl]pyridine-3-carboxamide] was “+++ (“+++” means <3 uM)”. For the compound `CC(C)COc1ccc(F)c(-c2ccc(C(=O)NS(=O)(=O)c3cccc(N)n3)c(N3CCC(C)CC3)n2)c1` [Compound 1109, N-[(6-amino-2-pyridyl)sulfonyl]-6-(2-fluoro-5-isobutoxy-phenyl)-2-(4-methyl-1-piperidyl)pyridine-3-carboxamide], the EC30 result is “++ (“++” means between 3 uM and 10 uM)”. For `CCOc1cccc2c1CN(Cc1ccc(Cl)nc1)C2(C)C(=O)NS(=O)(=O)c1cccc(N)n1` (stereo not drawn) [Compound 1565, N-[(6-amino-2-pyridyl)sulfonyl]-2-[(6-chloro-3-pyridyl)methyl]-4-ethoxy-1-methyl-isoindoline-1-carboxamide], the EC30 result is given as “+ (“+” means greater than 10 uM)”.

Consider `COc1ccc(-c2ccc(C(=O)NS(=O)(=O)c3ccc[nH]c3=O)c(Oc3c(C)cc(C)cc3C)n2)cc1` [Compound 980, 6-(4-methoxyphenyl)-N-[(2-oxo-1H-pyridin-3-yl)sulfonyl]-2-(2,4,6-trimethylphenoxy)pyridine-3-carboxamide], for which the EC30 entry is “++ (“++” means between 3 uM and 10 uM)”. The value for `CC1CN(c2ncccc2C(=O)NS(=O)(=O)c2cccc(Nc3cccc4cccnc34)n2)C(C)(C)C1` (stereo not drawn) [Compound 1826, N—[[6-(8-quinolylamino)-2-pyridyl]sulfonyl]-2-(2,2,4-trimethylpyrrolidin-1-yl)pyridine-3-carboxamide] was “+++ (“+++” means <3 uM)”; that for `CC(C)COc1cncc(-c2ccc(C(=O)NS(=O)(=O)c3cccc(N)n3)c(N3CC(C)CC3(C)C)n2)n1` (stereo not drawn) [Compound 988, N-[(6-amino-2-pyridyl)sulfonyl]-6-(6-isobutoxypyrazin-2-yl)-2-(2,2,4-trimethylpyrrolidin-1-yl)pyridine-3-carboxamide] was “+++ (“+++” means <3 uM)”. As for `C[C@@H]1CN(c2nc(-c3ccc(OC(F)(F)F)cc3)ccc2C(=O)NS(=O)(=O)N2CC[C@H](N)C2)C(C)(C)C1` [Compound 1763, N-[(3S)-3-aminopyrrolidin-1-yl]sulfonyl-6-[4-(trifluoromethoxy)phenyl]-2-[(4S)-2,2,4-trimethylpyrrolidin-1-yl]pyridine-3-carboxamide], the EC30 entry is “+++ (“+++” means <3 uM)”. With `Cc1cccc(C)c1Cn1nc(-c2ccc(OC(C)C)cc2)cc1C(=O)NS(=O)(=O)c1ccccc1` [Compound 1478, N-(benzenesulfonyl)-2-[(2,6-dimethylphenyl)methyl]-5-(4-isopropoxyphenyl)pyrazole-3-carboxamide], the EC30 entry is “+++ (“+++” means <3 uM)”. The value for `C[C@@H]1CN(c2nc(Cl)ccc2C(=O)NS(=O)(=O)c2cccc(N)n2)C(C)(C)C1` [Compound 852, N-[(6-amino-2-pyridyl)sulfonyl]-6-chloro-2-[(4S)-2,2,4-trimethylpyrrolidin-1-yl]pyridine-3-carboxamide] was “++ (“++” means between 3 uM and 10 uM)”. Turning to `C[C@@H]1CN(c2nc(-c3cc(F)ccc3F)ccc2C(=O)NS(=O)(=O)c2ccc[nH]c2=O)C(C)(C)C1` [Compound 1954, 6-(2,5-difluorophenyl)-N-[(2-oxo-1H-pyridin-3-yl)sulfonyl]-2-[(4S)-2,2,4-trimethylpyrrolidin-1-yl]pyridine-3-carboxamide], the EC30 entry is on record as “+++ (“+++” means <3 uM)”. Take `CCOc1cccc2c1CN(Cc1ccc(F)cc1)C2(C)C(=O)NS(=O)(=O)c1cccc(N)n1` (stereo not drawn) [Compound 1433, N-[(6-amino-2-pyridyl)sulfonyl]-4-ethoxy-2-[(4-fluorophenyl)methyl]-1-methyl-isoindoline-1-carboxamide]: the EC30 result was “++ (“++” means between 3 uM and 10 uM)”. Regarding `CC(C)COc1cc(F)cc(-c2ccc(C(=O)NS(=O)(=O)c3cccc(N)n3)c(N3CC(C)CCC3C)n2)c1` (single isomer, unassigned) [Compound 1864, N-[(6-amino-2-pyridyl)sulfonyl]-2-(2,5-dimethyl-1-piperidyl)-6-(3-fluoro-5-isobutoxy-phenyl)pyridine-3-carboxamide], the EC30 entry was “+++ (“+++” means <3 uM)”. Take `CC(C)[C@@H](C)Nc1ccc(-c2ccc(C(=O)NS(=O)(=O)c3cccc(N)n3)c(N3[C@H](C)CC[C@@H]3C)n2)cn1` [Compound 1442, N-[(6-amino-2-pyridyl)sulfonyl]-6-[6-[[(1R)-1,2-dimethylpropyl]amino]-3-pyridyl]-2-[(2S,5R)-2,5-dimethylpyrrolidin-1-yl]pyridine-3-carboxamide]: the EC30 result is recorded as “+++ (“+++” means <3 uM)”. With `CCOc1ccc(-c2ccc(C(=O)NS(=O)(=O)c3ccc[nH]c3=O)c(Oc3c(C)cc(C)cc3C)n2)cc1` [Compound 1179, 6-(4-ethoxyphenyl)-N-[(2-oxo-1H-pyridin-3-yl)sulfonyl]-2-(2,4,6-trimethylphenoxy)pyridine-3-carboxamide], the EC30 entry was “++ (“++” means between 3 uM and 10 uM)”. As to `CC1CN(c2ncccc2C(=O)NS(=O)(=O)c2cccc(OCCc3ccc(F)cc3)n2)C(C)(C)C1` (stereo not drawn) [Compound 1704, N—[[6-[2-(4-fluorophenyl)ethoxy]-2-pyridyl]sulfonyl]-2-(2,2,4-trimethylpyrrolidin-1-yl)pyridine-3-carboxamide], the EC30 result is “+++ (“+++” means <3 uM)”. On to `COc1ccc(-c2ccc(C(=O)NS(=O)(=O)c3cccc(N)n3)c(Oc3c(C)cc(C)cc3C)n2)cc1F` [Compound 1140, N-[(6-amino-2-pyridyl)sulfonyl]-6-(3-fluoro-4-methoxy-phenyl)-2-(2,4,6-trimethylphenoxy)pyridine-3-carboxamide], for which the EC30 entry is recorded as “+++ (“+++” means <3 uM)”. `Cc1ccnc(C)c1Oc1nc(-c2cc(F)cc(OCC(C)C)c2)ccc1C(=O)NS(=O)(=O)c1cccc(N)n1` [Compound 1574, N-[(6-amino-2-pyridyl)sulfonyl]-2-[(2,4-dimethyl-3-pyridyl)oxy]-6-(3-fluoro-5-isobutoxy-phenyl)pyridine-3-carboxamide]: the EC30 result is “++ (“++” means between 3 uM and 10 uM)”.

Consider `COc1cc(-c2ccc(C(=O)NS(=O)(=O)c3ccc[nH]c3=O)c(N3C[C@@H](C)CC3(C)C)n2)ccc1F` [Compound 1780, 6-(4-fluoro-3-methoxy-phenyl)-N-[(2-oxo-1H-pyridin-3-yl)sulfonyl]-2-[(4S)-2,2,4-trimethylpyrrolidin-1-yl]pyridine-3-carboxamide], for which the EC30 entry was “++ (“++” means between 3 uM and 10 uM)”. Take `Cc1cc(C)c(Oc2nc(C3=CCN(C(=O)C(C)C)CC3)ccc2C(=O)NS(=O)(=O)c2cccc(N)n2)c(C)c1` [Compound 1540, N-[(6-amino-2-pyridyl)sulfonyl]-6-[1-(2-methylpropanoyl)-3,6-dihydro-2H-pyridin-4-yl]-2-(2,4,6-trimethylphenoxy)pyridine-3-carboxamide]: the EC30 entry is “+ (“+” means greater than 10 uM)”.
